Data published in ChEMBL document CHEMBL3045692, “Effectiveness of cyproconazole to control Armillaria root rot of apple, walnut and kiwifruit” (Crop Prot, 2012).
Converted amounts (≈) assume the structure as drawn.

Tests used:
Armillaria mellea [1] = experiment: Fungicidal activity against Armillaria mellea infected kiwifruit assessed as mycelial growth inhibition at 25 mg/l formulated as Caddy 10WP at 25 degC measured every week for 1 month (reference value: 0%); assay type: functional; settings: read-out: GI
Armillaria mellea [2] = experiment: Fungicidal activity against Armillaria mellea infected apple assessed as mycelial growth inhibition at Caddy 10WP formulation at 25 degC measured every week for 1 month; assay type: functional, organism-based
Armillaria mellea [3] = experiment: Fungicidal activity against Armillaria mellea infected apple assessed as mycelial growth inhibition at 20 mg/l formulated as Caddy 10WP at 25 degC measured every week for 1 month (reference value: 0%); assay type: functional; settings: read-out: GI
Armillaria mellea [4] = experiment: Fungicidal activity against Armillaria mellea infected kiwifruit assessed as mycelial growth inhibition at 20 mg/l formulated as Caddy 10WP at 25 degC measured every week for 1 month (reference value: 0%); assay type: functional; settings: read-out: GI
Armillaria mellea [5] = experiment: Fungicidal activity against Armillaria mellea infected walnut assessed as mycelial growth inhibition at 10 mg/l formulated as Caddy 10WP at 25 degC measured every week for 1 month (reference value: 0%); assay type: functional; settings: read-out: GI
Armillaria mellea [6] = experiment: Fungicidal activity against Armillaria mellea infected apple assessed as mycelial growth inhibition at 5 mg/l formulated as Caddy 10WP at 25 degC measured every week for 1 month (reference value: 0%); assay type: functional; settings: read-out: GI
Armillaria mellea [7] = experiment: Fungicidal activity against Armillaria mellea infected walnut assessed as mycelial growth inhibition at 20 mg/l formulated as Caddy 10WP at 25 degC measured every week for 1 month (reference value: 0%); assay type: functional; settings: read-out: GI
Armillaria mellea [8] = experiment: Fungicidal activity against Armillaria mellea infected walnut assessed as mycelial growth inhibition at 15 mg/l formulated as Caddy 10WP at 25 degC measured every week for 1 month (reference value: 0%); assay type: functional; settings: read-out: GI
Armillaria mellea [9] = experiment: Fungicidal activity against Armillaria mellea infected walnut assessed as mycelial growth inhibition at Caddy 10WP formulation at 25 degC measured every week for 1 month; assay type: functional, organism-based
Armillaria mellea [10] = experiment: Fungicidal activity against Armillaria mellea infected apple assessed as mycelial growth inhibition at 15 mg/l formulated as Caddy 10WP at 25 degC measured every week for 1 month (reference value: 0%); assay type: functional; settings: read-out: GI
Armillaria mellea [11] = experiment: Fungicidal activity against Armillaria mellea infected apple assessed as mycelial growth inhibition at 10 mg/l formulated as Caddy 10WP at 25 degC measured every week for 1 month (reference value: 0%); assay type: functional; settings: read-out: GI
Armillaria mellea [12] = experiment: Fungicidal activity against Armillaria mellea infected apple assessed as mycelial growth inhibition at 30 mg/l formulated as Caddy 10WP at 25 degC measured every week for 1 month (reference value: 0%); assay type: functional; settings: read-out: GI
Armillaria mellea [13] = experiment: Fungicidal activity against Armillaria mellea infected kiwifruit assessed as mycelial growth inhibition at 30 mg/l formulated as Caddy 10WP at 25 degC measured every week for 1 month (reference value: 0%); assay type: functional; settings: read-out: GI
Armillaria mellea [14] = experiment: Fungicidal activity against Armillaria mellea infected walnut assessed as mycelial growth inhibition at 5 mg/l formulated as Caddy 10WP at 25 degC measured every week for 1 month (reference value: 0%); assay type: functional; settings: read-out: GI
Armillaria mellea [15] = experiment: Fungicidal activity against Armillaria mellea infected kiwifruit assessed as mycelial growth inhibition at 15 mg/l formulated as Caddy 10WP at 25 degC measured every week for 1 month (reference value: 0%); assay type: functional; settings: read-out: GI
Armillaria mellea [16] = experiment: Fungicidal activity against Armillaria mellea infected walnut assessed as mycelial growth inhibition at 25 mg/l formulated as Caddy 10WP at 25 degC measured every week for 1 month (reference value: 0%); assay type: functional; settings: read-out: GI
Armillaria mellea [17] = experiment: Fungicidal activity against Armillaria mellea infected kiwifruit assessed as mycelial growth inhibition at 10 mg/l formulated as Caddy 10WP at 25 degC measured every week for 1 month (reference value: 0%); assay type: functional; settings: read-out: GI
Armillaria mellea [18] = experiment: Fungicidal activity against Armillaria mellea infected walnut assessed as mycelial growth inhibition at 30 mg/l formulated as Caddy 10WP at 25 degC measured every week for 1 month (reference value: 0%); assay type: functional; settings: read-out: GI
Armillaria mellea [19] = experiment: Fungicidal activity against Armillaria mellea infected kiwifruit assessed as mycelial growth inhibition at 5 mg/l formulated as Caddy 10WP at 25 degC measured every week for 1 month (reference value: 0%); assay type: functional; settings: read-out: GI
Armillaria mellea [20] = experiment: Fungicidal activity against Armillaria mellea infected apple assessed as mycelial growth inhibition at 25 mg/l formulated as Caddy 10WP at 25 degC measured every week for 1 month (reference value: 0%); assay type: functional; settings: read-out: GI
Armillaria mellea [21] = experiment: Fungicidal activity against Armillaria mellea infected kiwifruit assessed as mycelial growth inhibition at Caddy 10WP formulation at 25 degC measured every week for 1 month; assay type: functional, organism-based

In the case of `CC(C1CC1)C(O)(Cn1cncn1)c1ccc(Cl)cc1` (stereo unspecified) [CYPROCONAZOLE], the inhibition of growth at 25 µg/mL (Armillaria mellea [1]) is reported as 100%, the EC50 (Armillaria mellea [2]) is reported as 5.19 µg/mL (≈ 17.8 µM) and the inhibition of growth at 20 µg/mL (Armillaria mellea [3]) is reported as 100%. The inhibition of growth at 20 µg/mL (Armillaria mellea [4]) was 100%, the inhibition of growth at 10 µg/mL (Armillaria mellea [5]) was 73% and the inhibition of growth at 5 µg/mL (Armillaria mellea [6]) was 56%. For the same compound, the inhibition of growth at 20 µg/mL (Armillaria mellea [7]) was 100%, the inhibition of growth at 15 µg/mL (Armillaria mellea [8]) was 95% and the EC50 (Armillaria mellea [9]) was 6.73 µg/mL (≈ 23.1 µM). The inhibition of growth at 15 µg/mL (Armillaria mellea [10]) was 98%, the inhibition of growth at 10 µg/mL (Armillaria mellea [11]) was 89% and the inhibition of growth at 30 µg/mL (Armillaria mellea [12]) was 100%. The inhibition of growth at 30 µg/mL (Armillaria mellea [13]) was 100%, the inhibition of growth at 5 µg/mL (Armillaria mellea [14]) was 41% and the inhibition of growth at 15 µg/mL (Armillaria mellea [15]) was 100%. It also gave an inhibition of growth at 25 µg/mL (Armillaria mellea [16]) of 100%, an inhibition of growth at 10 µg/mL (Armillaria mellea [17]) of 86% and an inhibition of growth at 30 µg/mL (Armillaria mellea [18]) of 100%. It also gave an inhibition of growth at 5 µg/mL (Armillaria mellea [19]) of 47%, an inhibition of growth at 25 µg/mL (Armillaria mellea [20]) of 100% and an EC50 (Armillaria mellea [21]) of 5.72 µg/mL (≈ 19.6 µM).
